Assay results taken from patent publication US12595222B2, “Curcuminoids, analogs thereof, and methods of making the same” (WiSys Technology Foundation, Inc., priority 2021, dated 2026).

Test system: Epstein-Barr virus (EBV)
Assay: EBV reactivation (viral BZLF1 gene expression) inhibition
Type: cell-based
Conditions: 3 mM; compared to low expression in unactivated cells
Method: FIG. 20B illustrates EBV reactivation in the presence of the curcuminoids shown in FIG. 28A, measured by increased viral BZLF1 gene expression, is induced with a known reactivating drug, sodium butyrate (3 mM) compared to low expression in unactivated cells, in accordance with various embodiments. EBV reactivation was inhibited by five novel curcuminoids (10 μM).

`CCCC(=O)[O-].[Na+]` [sodium butyrate] was tested, and the “EBV reactivation, measured by increased viral BZLF1 gene expression” value was “induced”.
